The record followed here is the NIST ThermoML archive (doi:10.1016/j.fluid.2008.02.016).

For data set [1] the following is noted: Crystal; DTA.
The nature of data set [2]: Molar enthalpy of transition or fusion. To be noted: Crystal; DSC.

± gives the expanded uncertainty stated by the source.

For `Cc1ccc(C(c2ccc(C)cc2)(C(F)(F)F)C(F)(F)F)cc1` [2,2-bis(p-tolyl)hexafluoropropane], in data set [1], the Normal melting temperature was determined as 84.10 ± 0.5 °C. Besides, the “Molar enthalpy of transition or fusion” value in data set [2] was 5.33 ± 0.167 kcal/mol.
The matching figures for `Cc1ccc(C(C)(C)c2ccc(C)cc2)cc1` [2,2-bis(p-tolyl)propane]: 78.60 ± 0.5 °C and 5.07 ± 0.143 kcal/mol.
